Measured values published in PMC7550284, “The functional cooperation of 5-HT1A and mGlu4R in HEK-293 cell line” (Pharmacological Reports, 2020).
Blank lines part the entries; values can stand above or below the compound they belong to.

Tests used:
5-HT1A receptor [1] = molecular target: T1, 5-HT1A receptor (Homo sapiens, UniProt P08908); test: Forskolin-induced cAMP accumulation in T-REx 293 cells expressing both 5-HT1A-HALO and mGlu4R-SNAP, 5-HT1A agonist response; format: cell-based; details: +Tet
T1 construct: expressed in transfected cells
T1 sequence (P08908 1-422): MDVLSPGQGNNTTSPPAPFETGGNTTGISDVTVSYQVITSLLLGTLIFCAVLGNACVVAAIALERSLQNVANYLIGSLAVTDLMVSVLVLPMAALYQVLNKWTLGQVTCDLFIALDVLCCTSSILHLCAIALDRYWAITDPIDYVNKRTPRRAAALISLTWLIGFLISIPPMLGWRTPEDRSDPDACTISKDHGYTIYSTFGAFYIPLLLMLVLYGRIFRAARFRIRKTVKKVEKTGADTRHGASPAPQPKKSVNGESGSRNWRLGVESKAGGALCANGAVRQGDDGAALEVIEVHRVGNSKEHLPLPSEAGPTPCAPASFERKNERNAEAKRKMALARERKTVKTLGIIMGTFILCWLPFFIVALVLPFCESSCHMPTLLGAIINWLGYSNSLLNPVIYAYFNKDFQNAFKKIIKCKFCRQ
Method: (§1) The cell line was maintained in DMEM medium supplemented with 10% FBS (tetracycline free), 2 mM Glutamax I (Lonza,), 100 µg/mL Zeocin and 10 µg/mL blasticidin (Invitrogen). T-REx 293 cells were treated with a mixture of plasmids (0.1 µg pTet-SNAP-GRM4 and 0.9 µg pOG44) and GeneJuice transfection reagent according to the manufacturer’s instructions (Novagen). After 48 h, selection for the stably integrated plasmid with 100 µg/mL hygromycin B (Invitrogen) began. In parallel experiments, the HALO-5-HT1A plasmid was introduced into T-REx 293 cells or cells with the inducible expression of SNAP-GRM4 to generate a cell line that expressed both receptors. In the double expression system (as well as in other experiments), 5-HT1A was stably expressed, and mGlu4R expression was induced by tetracycline treatment (+ Tet; 0.75 µg/mL) (Fig. S3). One additional cell line was generated by cloning the 5-HT1A insert (BamHI/XhoI) into the pSNAPf vector ([…]).
(§2) Each experiment was performed three times (n = 3), and each data point was in triplicate. The curves for the data shown were fitted to a three-parameter logistic equation, allowing for the determination of IC50 values and Emax. For comparison of IC50 between the curves, t test was applied. The ONE way ANOVA and Tukey’s post hoc test were used for in vitro receptor interaction assays statistics.

[2] = molecular target: T2, hmGlu4 receptor homodimer (Homo sapiens, UniProt Q14833); test: HTRF-FRET receptor interaction assay, mGlu4-SNAP homodimers (Snap-Tb/Snap-Green); format: cell-based; details: in presence of L-glutamate; VU0155041 10 μM, LY341495 100 µM
T2 construct: expressed in transfected cells
T2 sequence (Q14833 33-912): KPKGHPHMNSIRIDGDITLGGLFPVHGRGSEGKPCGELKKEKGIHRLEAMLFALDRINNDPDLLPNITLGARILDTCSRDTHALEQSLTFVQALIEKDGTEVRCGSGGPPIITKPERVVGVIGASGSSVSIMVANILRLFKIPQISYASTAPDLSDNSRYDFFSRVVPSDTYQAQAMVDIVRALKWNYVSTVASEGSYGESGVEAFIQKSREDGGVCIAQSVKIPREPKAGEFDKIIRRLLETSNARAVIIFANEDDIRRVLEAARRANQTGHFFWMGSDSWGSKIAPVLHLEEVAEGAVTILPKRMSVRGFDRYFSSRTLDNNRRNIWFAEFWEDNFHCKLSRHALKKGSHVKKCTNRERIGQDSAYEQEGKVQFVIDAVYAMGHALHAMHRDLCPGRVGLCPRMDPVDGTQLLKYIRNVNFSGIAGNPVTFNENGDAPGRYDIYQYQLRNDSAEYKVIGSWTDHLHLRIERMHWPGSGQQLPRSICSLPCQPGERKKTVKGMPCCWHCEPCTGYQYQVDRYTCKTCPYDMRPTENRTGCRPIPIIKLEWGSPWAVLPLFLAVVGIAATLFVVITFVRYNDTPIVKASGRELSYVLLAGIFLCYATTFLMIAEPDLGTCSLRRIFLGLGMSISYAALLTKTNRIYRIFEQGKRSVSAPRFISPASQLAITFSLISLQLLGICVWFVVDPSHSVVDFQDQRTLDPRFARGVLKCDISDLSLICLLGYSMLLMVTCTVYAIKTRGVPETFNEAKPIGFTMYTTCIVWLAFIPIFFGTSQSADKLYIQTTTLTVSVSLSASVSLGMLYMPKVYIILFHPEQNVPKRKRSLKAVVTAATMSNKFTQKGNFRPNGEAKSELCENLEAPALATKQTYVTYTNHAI

mGlu4R [3] = molecular target: T3, mGlu4R (Homo sapiens, UniProt Q14833); test: Forskolin-induced cAMP accumulation in T-REx 293 cells expressing both 5-HT1A-HALO and mGlu4R-SNAP, L-glutamate response; format: cell-based; details: SSZ 100 μM; +Tet
T3 construct: expressed in transfected cells
T3 sequence (Q14833 33-912): as above
Method: as §1, §2

mGlu4R [4] = test: as above; format: cell-based, human; details: without tetracycline induction (−Tet); curve parameters impossible to determine
Method: as §1, §2

5-HT1A receptor [5] = molecular target: T1, 5-HT1A receptor; test: Forskolin-induced cAMP accumulation (HTRF) in T-REx-293-h5-HT1A-SNAP cells; format: cell-based; details: cAMP assay, Fig. 1b
Method: as §1, §2

SMILES: CCCN(CCC)[C@@H]1CCc2cccc(O)c2C1 [(R)-(+)-8-OH DPAT, (R)-(+)-8-hydroxy-DPAT]
Effect on forskolin-stimulated cAMP accumulation after induction of mGlu4 receptor expression (5-HT1A receptor [1]): abolished

SMILES: O=C(Nc1cc(Cl)cc(Cl)c1)[C@H]1CCCC[C@H]1C(=O)O [VU0155041]
Effect on FRET signal / interaction between mGluR4 monomers [2]: enhanced interaction

Effect of sulfasalazine treatment on 5-HT1A activity in presence of mGlu4 receptors (5-HT1A receptor [1]; SSZ 100 μM, versus cells without SSZ): significantly enhanced
SMILES: O=C(O)c1cc(/N=N/c2ccc(S(=O)(=O)Nc3ccccn3)cc2)ccc1O [Sulfasalazine, sulfasalazine]
Effect of sulfasalazine treatment on the dose–response curve of glutamate (mGlu4R [3]): shifted the dose–response curve of glutamate to the left

SMILES: N[C@@H](CCC(=O)O)C(=O)O [L-glutamate]
Effect on forskolin-induced cAMP accumulation without induction of mGlu4 receptor expression (mGlu4R [4]): not effective

Effect of antagonist on the agonist (R)-(+)-8-OH DPAT Emax (5-HT1A receptor [5]): totally abolished
SMILES: COc1ccccc1N1CCN(CC(C(=O)NC(C)(C)C)c2ccccc2)CC1 (stereo not drawn) [WAY100135]
